Laboratory results published in patent publication US8153368B2, “Four-jointed box (FJX1) in cancer diagnosis and treatment” (Vanderbilt University, priority 2007, dated 2012).

Key:
[1] = system: FJX1 mRNA in SW620 colon cancer cells; assay: qRT-PCR of FJX1 mRNA after γ-secretase inhibition in SW620 cells; format: cell-based, human; details: 200 nM DAPT vs vehicle (DMSO), 16 hrs
Description: (§1) FIG. 19A-B—Inhibition of Notch signaling causes a reduction in fjx1 expression in colon cancer cells. Fjx1 expression levels as determined by qRT-PCR in (FIG. 19A) SW480 and (FIG. 19B) SW620 colon cancer cells following treatment with the γ-secretase inhibitor DAPT.
(§2) Since four-jointed in Drosophila is regulated by Notch signaling, and mouse fjx1 expression appears to be a target of Notch regulation, the inventors predicted that inhibition of Notch signaling would inhibit FJX1 expression in colon cancer cells. A reliable pharmacological method of inhibiting Notch signaling is to block release of the Notch intracellular domain through inhibition of γ-secretase activity (van Es et al., 2005). Therefore, the inventors used a selective inhibitor of γ-secretase, DAPT, or vehicle (DMSO) to treat SW480 and SW620 cells for 16 hrs and determined the effect on levels of FJX1.
(§3) FJX1 expression in colon cancer cells. In preliminary studies examining the role of fjx1 as it relates to Notch signaling in CRC, the inventors have assessed expression of fjx1 mRNA in several human colon cancer cell lines and found abundant expression of fjx1 in both SW480 and SW620 cells (in comparison with colon adenomas), and less abundant expression in HT29 cells as determined by qRT-PCR (data not shown). […]

Notch pathway [2] = assay: Notch-responsive reporter (4xCSL-Luc) in HEK293T cells; format: cell-based, human; details: transient transfection, DAPT 200 nM or dnMAM
Experimental: FIGS. 18A-B—Experimental inactivation of Notch pathway signaling in HEK293 cells. Transient transfections of cells was carried out using a Notch promoter reporter plasmid (4xCSL) and a control reporter (pRL-tk). The Relative Light Units (4xCSL/pRL-tk) are plotted for each treatment group. (FIG. 18A) Notch activity in HEK293 cells following treatment with NICD, NICD+200 nM DAPT, LNG (negative control), LNG+200 nM DAPT and 200 nM DAPT. (FIG. 18B) Notch promoter activity in HEK293 cells following treatment with dnMAM, NICD, NICD+dnMAM, LNG and LNG+dnMAM.
as §3, with “shown). Since four-jointed in Drosophila is regulated by Notch signaling, and mouse fjx1 expression appears to be a target of Notch regulation, the inventors predicted that inhibition of Notch signaling would inhibit fjx1 expression in colon cancer cells. A reliable pharmacological method of inhibiting Notch signaling is to block release of the Notch intracellular domain through inhibition of γ-secretase activity (van Es, 2005).” for “shown).”

Notch pathway [3] = assay: Notch-responsive reporter (4xCSL-Luc) in SW480 cells; format: cell-based, human; details: data not shown
Description: FJX1 expression in colon cancer cells. In preliminary studies examining the role of fjx1 as it relates to Notch signaling in CRC, the inventors have assessed expression of fjx1 mRNA in several human colon cancer cell lines and found abundant expression of fjx1 in both SW480 and SW620 cells (in comparison with colon adenomas), and less abundant expression in HT29 cells as determined by qRT-PCR (data not shown). Since four-jointed in Drosophila is regulated by Notch signaling, and mouse fjx1 expression appears to be a target of Notch regulation, the inventors predicted that inhibition of Notch signaling would inhibit fjx1 expression in colon cancer cells. A reliable pharmacological method of inhibiting Notch signaling is to block release of the Notch intracellular domain through inhibition of γ-secretase activity (van Es, 2005). A complementary genetic method of Notch inhibition is through the use of a truncated, dominant negative construct of Mastermind or “dnMAM” (pCS2-Myc 1-30aa Mastermind a gift from K. A. Jones, Ph.D., the Salk Institute, La Jolla, Calif.) (Fryer, 2002). The dnMAM is mutated such that it cannot form a functional RBPJ complex and therefore, cannot activate the Notch responsive promoter. […] The inventors have also used DAPT treatments of SW480 and SW620 cells (200 nM for 16 hrs) to block expression of fjx1 in response to Notch signaling (FIG. 19).

[4] = system: FJX1 mRNA in SW480 colon cancer cells; assay: qRT-PCR of FJX1 mRNA after γ-secretase inhibition in SW480 cells; format: cell-based, human; details: 200 nM DAPT vs vehicle (DMSO), 16 hrs
Experimental: FIG. 3—Decreased FJX1 expression following inhibition of […] (DAPT) in SW480 colon cancer cells. Cells were grown to 70-80% confluence using complete RPMI and then treated with 200 nM of DAPT or vehicle. The RNA was harvested 16 hrs later using an RNeasy™ kit (Qiagen). qRT-PCR was performed as outlined in the text. Gene expression values were normalized to a housekeeping gene (PMM1) for the final analysis. The values are expressed as fold-change in comparison to normal colonic mucosal levels.
as §1
as §2, with “FJX1. […]” for “FJX1.”

FJX1 mRNA = assay: qRT-PCR of FJX1 expression in rectal cancer biopsies before and after celecoxib; format: in vivo, human; details: range in the four of five rectal cancers that were down-regulated; pre vs post treatment

Structure (SMILES)	levels of FJX1 mRNA [1]	Notch promoter reporter activity (4xCSL/pRL-tk relative light units) (Notch pathway [2])	Notch promoter reporter activity (4xCSL-Luc) (Notch pathway [3])	levels of FJX1 mRNA [4]	fjx1 mRNA decrease after Celecoxib treatment (qRT-PCR) (FJX1 mRNA)
C[C@H](NC(=O)Cc1cc(F)cc(F)c1)C(=O)N[C@H](C(=O)OC(C)(C)C)c1ccccc1 [DAPT]	reduced the levels of FJX1 mRNA	specific Notch pathway inhibition	specific Notch pathway inhibition	reduced the levels of FJX1 mRNA	–
Cc1ccc(-c2cc(C(F)(F)F)nn2-c2ccc(S(N)(=O)=O)cc2)cc1 [celecoxib]	–	–	–	–	2.5-17.5 fold decrease
